Converted amounts (≈) assume the structure as drawn. “And” between values parts separate entries of the source, which are not always exact repeats. Equal values may be shown once. Read-outs that look alike come from different tables or passages of the source.
Tests used:
[1] = system: H37Rv strain of M. tuberculosis; test: BACTEC 460 radiometric system in BACTEC 12B medium: inhibition and MIC; type: cell-based; settings: for % Inhibition: 12.5 μg/mL; for MIC: lowest concentration inhibiting 99% of the inoculum
[2] = IC50 of Table 2 (used for SI = IC50/MIC; test not described)
M. tuberculosis H37Ra [3] = test: MIC and MBC determination using 2-fold dilutions; type: cell-based; settings: for MIC / MBC: Mycobacterium tuberculosis
M. tuberculosis H37Ra [4] = test: colorimetric microdilution broth assay with alamar Blue, initial screen at four log10 dilutions; type: cell-based; settings: Mycobacterium tuberculosis, H37RA, initial screening at 0.128, 1.28, 12.8 and 128 μg/mL, read-out: MIC
Protocol: The compounds synthesized above were evaluated for activity against M. tuberculosis H37Ra using a colorimetric microdilution broth assay that incorporated the REDOX indicator alamar Blue, which indicates the growth and viability by the metabolic reduction of the dye from blue to red^18.
In an initial screen, the compounds were assayed in duplicate at four log10 dilutions, with the highest concentration being 128 μg/mL (therefore, tested concentrations were 0.128, 1.28, 12.8, and 128 μg/mL). Each solubilized test compound was diluted in broth medium (Middlebrook 7H9+ADC enrichment+0.2% glycerol) at twice the desired concentration and 0.05 mL of each dilution then added to appropriate wells in duplicate in a 96 well (U-shaped) microtiter plates. A plate format was designed for up to seven (7) compounds per plate. Each plate also included uninoculated drug controls, viability controls, uninoculated medium controls, and positive drug controls. The inoculum for each well consisted of 0.05 mL of culture, standardized as described above to provide an inoculum in each microtiter well of approximately 10^5 CFU/mL. The plates were covered with a lid, placed in polyethylene bags and incubated for at 37° C. for 6 days. At that time, alamar Blue, diluted in Tween 80, was added to each well followed by further incubation for about 20 hours. The plates were read in an optical microplate reader programmed to subtract absorbance at 600 nm from absorbance at 570 nm. This effectively blanked out turbidity and absorbance due to oxidized dye. The amount of dye reduced, resulting in a change from blue to red, is indicative of drug yielding a differential absorption of zero or less.

[5] = system: M. tuberculosis strain H37Ra; test: MIC against strains of Table 1; type: cell-based
M. tuberculosis = settings: first line anti-TB drugs, for comparison; cited from earlier work
[6] = system: M. tuberculosis strain H37Rv; test: MIC against strains of Table 1; type: cell-based
[7] = system: M. tuberculosis strain Erdman (TMCC 107/ATCC 35801); test: bone marrow-derived murine macrophage model, BC99; type: cell-based
TB = settings: in vivo; cited from earlier work
[8] = system: M. tuberculosis' synthesis of protein, RNA, DNA and lipid; test: incorporation of radiolabeled precursors into mycobacterial macromolecular components; type: cell-based
M. avium = test: inhibition of M. avium; type: cell-based; settings: 12.5 μg/mL
Protocol: (§1) For comparison, MICs for the first line anti-TB drugs are 0.025-0.05 μg/mL for isoniazid, 0.005-0.2 μg/mL for rifampin, and 0.4-10 μg/mL for ethambutol. However, in a bone marrow-derived murine macrophage model, the BC 99 value of (+)-calanolide A, a concentration at which 99% of the inoculum of M. tuberculosis is destroyed, was 1.1 μg/mL (3 μM) against strain Erdman (TMCC 107/ATCC 35801) and 1.8 μg/mL (5 μM) against strain CSU 93 (CDC-95-031551), compared to 0.7-0.8 μg/mL (5-6 μM) for the positive control drug isoniazide.

[9] = system: M. tuberculosis strain CSU 93 (CDC-95-031551); test: bone marrow-derived murine macrophage model, BC99; type: cell-based; settings: concentration at which 99% of the inoculum is destroyed
Protocol: as §1

[10] = Mycobacterium tuberculosis, read-out: MIC

With CCCc1cc(=O)oc2c3c(c4c(c12)OC(C)(C)C=C4)O[C@@H](C)[C@H](C)[C@H]3O [(−)-Calanolide A (2), (−)-Calanolide A] the “% Inhibition” value [1] was 98%, the MIC [1] was 6.25 µg/mL (≈ 16.9 µM) and the IC50 [2] was >10 mg/L.
In the case of CCCc1cc(=O)oc2c(C(=O)CC)c(OC)c3c(c12)OC(C)(C)CC3 [Compound 44b, 5-Methoxy-2,2-dimethyl-6-propionyl-10-propyl-3,4-dihydro-2H-pyrano[2,3-f]chromen-8-one], the MIC (M. tuberculosis H37Ra [3]; 2-fold dilutions, lowest concentration that completely inhibits growth, H37Ra, read-out: MIC) was 16 mg/L (≈ 44.6 µM), the MBC (M. tuberculosis H37Ra [3]; minimum bactericidal concentration, H37Ra, read-out: MBC) was > 64 mg/L and the MIC (M. tuberculosis H37Ra [4]) was 1.28 to 12.8 mg/L (≈ 3.57 to 35.7 µM).
In the case of CCCc1cc(=O)oc2c(C(N)CC)c(OCCO)c3c(c12)OC(C)(C)C=C3 (centres unmarked) [Compound 45e, 6-(1-Aminopropyl)-5-(2-hydroxyethoxy)-2,2-dimethyl-10-propyl-2H-pyrano[2,3-f]chromen-8-one], the “effect on M. tuberculosis” value (M. tuberculosis H37Ra [3]) was “bactericidal”, the MBC (M. tuberculosis H37Ra [3]; H37RA) was 32 mg/L (≈ 82.6 µM) and the MIC (M. tuberculosis H37Ra [3]; H37RA) was 16 mg/L (≈ 41.3 µM). It also gave an MIC (M. tuberculosis H37Ra [4]) of 1.28 to 12.8 mg/L (≈ 3.3 to 33 µM).
In the case of CC[C@@H](CO)NCCN[C@@H](CC)CO [Ethambutol], the MIC [5, 10] is given as 4 mg/L (≈ 19.6 µM), the MIC (M. tuberculosis) is given as 0.4 to 10 mg/L and the MIC [6, 10] is given as 2 mg/L (≈ 9.79 µM).
For NNC(=O)c1ccncc1 [Isoniazid], the “BC 99” value ([7]; positive control, one range printed for strains Erdman and CSU 93, listed as isoniazide) is listed as 0.7-0.8 μg/mL and 5-6 μM, the MIC [5, 10] is listed as 0.063 mg/L (≈ 0.459 µM) and the MIC (M. tuberculosis) is listed as 0.025 to 0.05 mg/L. The MIC [6, 10] was 0.031 mg/L (≈ 0.226 µM).
For CO[C@H]1/C=C/O[C@@]2(C)Oc3c(C)c(O)c4c(O)c(c(/C=N/N5CCN(C)CC5)c(O)c4c3C2=O)NC(=O)/C(C)=C\C=C\[C@H](C)[C@H](O)[C@@H](C)[C@@H](O)[C@@H](C)[C@H](OC(C)=O)[C@@H]1C [Rifampin], the TB relapse rate (TB) is given as 5%, the MIC (M. tuberculosis) is given as 0.005 to 0.2 mg/L and the MIC [6, 10] is given as 0.016 mg/L (≈ 0.0194 µM).
With [H]/N=C(/N)N[C@H]1[C@H](O)[C@@H](O)[C@H](O[C@@H]2O[C@@H](C)[C@](O)(C=O)[C@H]2O[C@@H]2O[C@@H](CO)[C@H](O)[C@@H](O)[C@@H]2NC)[C@@H](N/C(N)=N\[H])[C@@H]1O [Streptomycin] the “inhibition of protein synthesis” value ([8]; positive control, at 5 hours) was 43% and the MIC [6, 10] was 0.25 mg/L (≈ 0.43 µM).
In the case of CO[C@H]1/C=C/O[C@@]2(C)Oc3c(C)c(O)c4c(O)c(c(/C=N/N5CCN(C6CCCC6)CC5)c(O)c4c3C2=O)NC(=O)/C(C)=C\C=C\[C@H](C)[C@H](O)[C@@H](C)[C@@H](O)[C@@H](C)[C@H](OC(C)=O)[C@@H]1C [rifapentine], the TB relapse rate (TB) is given as 10%.
For (+)-Calanolide A [(+)-Calanolide A (1)], the “% Inhibition” value [1] was 96%, the “% Inhibition” value ([1]; listed as (+)-calanolide A) was “greater than 96%” and the MIC [1] was 3.13 µg/mL. For the same compound, the MIC ([1]; listed as (+)-calanolide A) was 3.13 μg/mL and 8 μM, the “% Inhibition” value (M. avium) was 81% and the “BC 99” value ([7]; concentration at which 99% of the inoculum is destroyed, strain Erdman) was 1.1 μg/mL and 3 μM. For the same compound, the “kind of agent from drug inhibition patterns” value ([7]; macrophage model) was “bactericidal agent”, the “inhibition of RNA synthesis, extent and time frame” value [8] was “very similar to the positive control rifampin” and the “inhibition of protein synthesis” value [8] was 32%. The “inhibition of lipid synthesis” value ([8]; […], 12-hour time point, DMSO alone 51%) was 99%, the “inhibition of DNA synthesis” value ([8]; […], period of 3 hours, DMSO alone 24%) was “Approximately 77%” and the MIC [5] was 16 mg/L. For the same compound, the “BC 99” value [9] was 1.8 μg/mL and 5 μM, the IC50 [2] was 7.60 mg/L and the MIC [6] was 8 mg/L.

Reference: US6670383B2, “Pyranocoumarin compounds as a novel pharmacophore with anti-TB activity” (priority 2001, dated 2003)
